Measurements: ChEMBL document CHEMBL4354824, “4-Aryl-1-oxa-4,9-diazaspiro[5.5]undecane Derivatives as Dual μ-Opioid Receptor Agonists and σ1 Receptor Antagonists for the Treatment of Pain” (J Med Chem, 2020)

What was measured:
Mu-type opioid receptor [1] = molecular target: T1, Mu-type opioid receptor (Homo sapiens, UniProt P35372); assay: Agonist activity at human MOR expressed in CHOK1 cells assessed as […] of cAMP accumulation incubated for 45 mins by HTRF assay; format: functional, cell-based
T1 sequence (P35372 whole entry): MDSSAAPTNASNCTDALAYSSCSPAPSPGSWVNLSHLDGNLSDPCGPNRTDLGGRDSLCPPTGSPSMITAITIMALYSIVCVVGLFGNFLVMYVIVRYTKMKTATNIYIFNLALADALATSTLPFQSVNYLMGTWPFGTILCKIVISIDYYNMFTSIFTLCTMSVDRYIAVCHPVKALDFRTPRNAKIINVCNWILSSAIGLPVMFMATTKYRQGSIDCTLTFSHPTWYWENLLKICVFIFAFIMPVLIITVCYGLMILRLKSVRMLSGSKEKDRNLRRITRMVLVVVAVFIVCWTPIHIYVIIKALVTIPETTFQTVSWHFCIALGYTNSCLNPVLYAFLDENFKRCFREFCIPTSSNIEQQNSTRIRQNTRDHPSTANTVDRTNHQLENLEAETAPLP

Mu-type opioid receptor [2] = molecular target: T1, Mu-type opioid receptor; assay: Agonist activity at human MOR expressed in CHOK1 cells assessed as […] of cAMP accumulation incubated for 45 mins by HTRF assay relative to DAMGO; format: functional, cell-based
[3] = molecular target: Sigma non-opioid intracellular receptor 1 (Homo sapiens, UniProt Q99720); assay: Displacement of [3H]-(+)-pentazocine from human sigma-1 receptor expressed in HEK293 membranes incubated for 120 mins by liquid scintillation counting method
Sequence of Sigma non-opioid intracellular receptor 1 (Q99720 whole entry): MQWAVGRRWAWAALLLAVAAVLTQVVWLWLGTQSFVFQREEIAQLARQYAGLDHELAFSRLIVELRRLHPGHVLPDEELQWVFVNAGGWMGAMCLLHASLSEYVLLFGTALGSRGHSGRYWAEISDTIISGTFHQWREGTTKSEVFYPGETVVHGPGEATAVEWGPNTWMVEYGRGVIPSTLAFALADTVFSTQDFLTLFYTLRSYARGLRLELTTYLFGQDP

Mu-type opioid receptor [4] = molecular target: T1, Mu-type opioid receptor; assay: biochemical
Description: Displacement of [3H]-DAMGO from human MOR expressed in CHOK1 cell membranes incubated for 60 mins by liquid scintillation counting method

[5] = molecular target: Voltage-gated inwardly rectifying potassium channel KCNH2 (Homo sapiens, UniProt Q12809)
Sequence of Voltage-gated inwardly rectifying potassium channel KCNH2 (Q12809 whole entry): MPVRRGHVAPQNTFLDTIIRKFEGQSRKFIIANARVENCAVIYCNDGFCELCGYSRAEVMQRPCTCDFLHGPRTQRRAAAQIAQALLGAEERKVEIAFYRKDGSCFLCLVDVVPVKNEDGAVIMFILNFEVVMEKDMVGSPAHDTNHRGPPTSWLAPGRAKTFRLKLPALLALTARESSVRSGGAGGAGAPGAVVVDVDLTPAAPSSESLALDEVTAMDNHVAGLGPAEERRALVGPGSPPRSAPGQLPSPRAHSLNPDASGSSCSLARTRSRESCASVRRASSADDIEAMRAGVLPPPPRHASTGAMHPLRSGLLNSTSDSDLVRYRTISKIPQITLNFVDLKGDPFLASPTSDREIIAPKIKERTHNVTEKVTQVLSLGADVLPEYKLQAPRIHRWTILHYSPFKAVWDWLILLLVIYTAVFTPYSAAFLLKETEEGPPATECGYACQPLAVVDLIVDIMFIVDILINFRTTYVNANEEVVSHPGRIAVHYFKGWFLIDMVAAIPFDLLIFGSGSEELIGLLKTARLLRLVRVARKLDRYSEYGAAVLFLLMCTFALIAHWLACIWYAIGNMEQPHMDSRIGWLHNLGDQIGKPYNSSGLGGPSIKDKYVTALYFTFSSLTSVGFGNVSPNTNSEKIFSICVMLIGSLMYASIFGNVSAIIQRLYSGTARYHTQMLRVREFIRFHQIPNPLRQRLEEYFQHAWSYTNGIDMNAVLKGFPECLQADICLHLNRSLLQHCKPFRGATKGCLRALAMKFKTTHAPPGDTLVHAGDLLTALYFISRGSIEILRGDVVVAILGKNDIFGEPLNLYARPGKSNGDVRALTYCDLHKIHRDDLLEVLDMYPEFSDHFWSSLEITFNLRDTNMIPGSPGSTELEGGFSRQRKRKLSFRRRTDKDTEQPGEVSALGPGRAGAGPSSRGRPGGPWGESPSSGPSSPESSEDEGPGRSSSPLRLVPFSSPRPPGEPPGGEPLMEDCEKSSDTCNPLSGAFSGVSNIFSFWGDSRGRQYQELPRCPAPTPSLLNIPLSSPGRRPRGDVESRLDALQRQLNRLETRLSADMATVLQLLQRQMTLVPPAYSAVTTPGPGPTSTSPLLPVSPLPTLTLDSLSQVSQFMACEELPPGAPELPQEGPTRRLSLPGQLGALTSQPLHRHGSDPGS
Description: Inhibition of human ERG expressed in CHOK1 cells assessed as reduction in channel current at -80 mV holding potential by whole cell patch clamp assay

[6] = molecular target: T2, Alpha-1A adrenergic receptor (Homo sapiens) (UniProt P35348); assay: Displacement of [3H]-prazosin from human alpha1A adrenoreceptor expressed in enriched membranes at 1 uM incubated for 90 mins by liquid scintillation counting method relative to control; format: cell membranes
T2 sequence (whole entry): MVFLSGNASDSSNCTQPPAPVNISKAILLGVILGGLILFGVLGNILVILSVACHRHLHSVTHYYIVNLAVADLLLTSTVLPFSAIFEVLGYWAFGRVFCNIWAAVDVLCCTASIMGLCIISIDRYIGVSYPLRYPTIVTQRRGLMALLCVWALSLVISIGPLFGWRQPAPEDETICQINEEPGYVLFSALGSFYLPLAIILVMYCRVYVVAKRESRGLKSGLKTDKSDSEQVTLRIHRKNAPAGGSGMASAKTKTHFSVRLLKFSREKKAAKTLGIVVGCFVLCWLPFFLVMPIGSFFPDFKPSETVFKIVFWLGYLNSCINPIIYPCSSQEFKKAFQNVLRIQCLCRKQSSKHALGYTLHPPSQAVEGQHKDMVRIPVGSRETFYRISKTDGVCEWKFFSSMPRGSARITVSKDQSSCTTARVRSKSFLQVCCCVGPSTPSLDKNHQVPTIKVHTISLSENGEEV

Row | SMILES | EC50 (Mu-type opioid receptor [1]) | Emax (Mu-type opioid receptor [2]) | Ki [3] | Ki (Mu-type opioid receptor [4]) | IC50 [5] | inhibition [6]
1 | COCC1OC2(CCN(CCc3ccccc3)CC2)CN(c2ccccc2)C1=O (stereo not drawn) | 0.032 µM | 90% | 0.032 µM | 0.013 µM | 1.9 µM | 63%
2 | CC1OC2(CCN(CCc3cccnc3)CC2)CN(c2ccccc2)C1=O (stereo not drawn) | 0.853 µM | 85% | 0.091 µM | 0.117 µM |  | 67%
3 | CC1(C)OC2(CCN(CCc3ccccc3)CC2)CN(c2ccccc2)C1=O | 0.004 µM | 98% | 0.013 µM | 0.003 µM | 0.1 µM | 92%
4 | CC1OC2(CCN(CCc3cccc(C#N)c3)CC2)CN(c2ccccc2)C1=O (stereo not drawn) | 0.061 µM | 88% | 0.028 µM | 0.049 µM | 0.6 µM | 80%
5 | C[C@H]1OC2(CCN(CCc3ccccc3)CC2)CN(c2ccccc2)C1=O |  | 95% | 0.021 µM |  |  | 75%
6 | CC1OC2(CCN(CCc3ccccc3)CC2)CN(c2ccccc2)C1=O (racemic) |  |  | 0.006 µM |  |  | 
7 | CC1OC2(CCN(CCc3ccccc3)CC2)CN(c2cccnc2C(F)(F)F)C1=O (stereo not drawn) | 0.186 µM | 87% | 0.048 µM | 0.123 µM | 3.8 µM | 55%
8 | CC1OC2(CCN(CCc3ccccc3)CC2)CN(c2ncccc2F)C1=O (stereo not drawn) | 0.199 µM | 90% | 0.039 µM | 0.093 µM | 1.2 µM | 77%
9 | CC1OC2(CCN(CCc3ccncc3)CC2)CN(c2ccccc2)C1=O (stereo not drawn) | 1.42 µM | 81% | 0.112 µM | 0.516 µM |  | 30%
10 | C[C@H]1OC2(CCN(CCc3ccccc3F)CC2)CN(c2ncccc2C(F)(F)F)C1=O | 0.065 µM | 98% | 0.103 µM | 0.034 µM | 6.6 µM | 50%
11 | CC1OC2(CCN(CCc3ccccc3)CC2)CN(c2cncc(C(F)(F)F)c2)C1=O (stereo not drawn) | 0.721 µM | 92% | 0.014 µM | 0.261 µM | 0.5 µM | 87%
12 | CC(C)C1OC2(CCN(CCc3ccccc3)CC2)CN(c2ccccc2)C1=O (stereo not drawn) | 0.0002 µM | 96% | 0.01 µM | 0.001 µM | 1.2 µM | 65%
13 | CC1OC2(CCN(CCc3ccccc3)CC2)CN(c2cccc(C(F)(F)F)n2)C1=O (stereo not drawn) | 0.219 µM | 91% | 0.008 µM | 0.09 µM |  | 95%
14 | CCC1OC2(CCN(CCc3ccccc3)CC2)CN(c2ccccc2)C1=O (stereo not drawn) | 0.001 µM | 99% | 0.006 µM | 0.003 µM | 0.4 µM | 75%
15 | CC1OC2(CCN(CCc3ccccn3)CC2)CN(c2ccccc2)C1=O (stereo not drawn) | 0.229 µM | 85% | 0.053 µM | 0.09 µM | 2 µM | 49%
16 | CC1OC2(CCN(CCc3ccccc3)CC2)CN(c2ncccc2C(F)(F)F)C1=O (stereo not drawn) | 0.343 µM | 100% | 0.054 µM | 0.262 µM | 8.2 µM | 60%
17 | CC1OC2(CCN(CCc3ccccc3)CC2)CN(c2cnccn2)C1=O (stereo not drawn) | 0.527 µM | 55% | 0.013 µM | 0.304 µM | 0.1 µM | 64%

Row | SMILES | EC50 (Mu-type opioid receptor [1]) | Emax (Mu-type opioid receptor [2]) | Ki [3] | Ki (Mu-type opioid receptor [4]) | IC50 [5] | inhibition [6]
18 | CC1OC2(CCN(CCc3ccccc3)CC2)CN(c2cncc(F)c2)C1=O (stereo not drawn) | 0.23 µM | 87% | 0.003 µM | 0.204 µM | 1.1 µM | 85%
19 | CC1OC2(CCN(CCc3ccccc3)CC2)CN(c2ccccc2F)C1=O (stereo not drawn) | 0.004 µM | 94% | 0.011 µM | 0.008 µM | 1.2 µM | 68%
20 | CC(=O)Nc1ccccc1CCN1CCC2(CC1)CN(c1ccccc1)C(=O)C(C)O2 (stereo not drawn) | 0.342 µM | 95% | 0.656 µM | 0.19 µM |  | 68%
21 | CC1OC2(CCN(CCc3ccccc3)CC2)CN(c2cccnc2)C1=O (stereo not drawn) | 0.627 µM | 54% | 0.068 µM | 0.304 µM |  | 69%
22 | COC(=O)CC1OC2(CCN(CCc3ccccc3)CC2)CN(c2ccccc2)C1=O (stereo not drawn) | 0.181 µM | 85% | 0.054 µM | 0.092 µM | 0.2 µM | 72%
23 | CC1OC2(CCN(CCc3ccccc3)CC2)CN(c2ccccn2)C1=O (stereo not drawn) | 1.99 µM | 50% | 0.013 µM | 0.93 µM |  | 63%
24 | CC1OC2(CCN(CCc3ccccc3)CC2)CN(c2cnccc2C(F)(F)F)C1=O (stereo not drawn) | 0.025 µM | 96% | 0.063 µM | 0.028 µM | 3.3 µM | 58%
25 | C[C@H]1OC2(CCN(CCc3ccccc3F)CC2)CN(c2cnccc2C(F)(F)F)C1=O | 0.026 µM | 100% | 0.061 µM | 0.011 µM | 6.3 µM | 54%
26 | O=C1C(COCc2ccccc2)OC2(CCN(CCc3ccccc3)CC2)CN1c1ccccc1 (stereo not drawn) | 0.107 µM | 96% | 0.04 µM | 0.04 µM | 0.1 µM | 94%
27 | O=C1N(c2ccccc2)CC2(CCN(CCc3ccccc3)CC2)OC12CC2 | 0.011 µM | 93% | 0.009 µM | 0.015 µM | 1.2 µM | 87%
28 | CC1OC2(CCN(CCc3ccccn3)CC2)CN(c2cnccc2C(F)(F)F)C1=O (stereo not drawn) | 0.767 µM | 93% | 0.622 µM | 0.127 µM |  | 47%
29 | O=C1COC2(CCN(Cc3ccccc3)CC2)CN1c1ccccc1 | 3.04 µM | 74% | 0.026 µM | 0.534 µM |  | 
30 | COc1cccc(N2CC3(CCN(CCc4ccccc4)CC3)OC(C)C2=O)c1 (stereo not drawn) | 0.304 µM | 88% | 0.015 µM | 0.126 µM | 1 µM | 82%
31 | CC1OC2(CCN(CCc3ccccc3F)CC2)CN(c2ccccc2)C1=O (stereo not drawn) |  | 95% |  |  |  | 81%
32 | C[C@@H]1OC2(CCN(CCc3ccccc3)CC2)CN(c2ccccc2)C1=O |  | 83% | 0.014 µM |  |  | 68%
33 | COc1ccccc1N1CC2(CCN(CCc3ccccc3)CC2)OC(C)C1=O (stereo not drawn) | 0.144 µM | 81% | 0.038 µM | 0.057 µM |  | 78%
